Measured values from patent US8138119B2, “Alkoxyalkyl spirocyclic tetramic acids and tetronic acids” (Bayer Cropscience AG, priority 2005, dated 2012).

Assay: Determination of the log P values by HPLC on a reversed-phase column (C18)
Format: physicochemical
Protocol: The log P values given in the table were determined in accordance with EEC Directive 79/831 Annex V.A8 by HPLC (High Performance Liquid Chromatography) on a reversed-phase column (C18). Temperature: 43° C.
Mobile phases for the determination in the acidic range (pH 2.3): 0.1% aqueous phosphoric acid, acetonitrile; linear gradient from 10% acetonitrile to 90% acetonitrile
Calibration was carried out using unbranched alkan-2-ones (with 3 to 16 carbon atoms) whose log P values are known (determination of the log P values by the retention times using linear interpolation between two successive alkanones).

[1] = compounds of the formula (III), cis/trans isomer mixture, first value of the cell
[2] = compounds of the formula (III), cis/trans isomer mixture, second value of the cell
[3] = compounds of the formula (I-2-a), m.p. ° C./log P

Structure (SMILES)	log P [1]	log P [2]	log P [3]
CCOC(=O)C1(OC(=O)Cc2cc(-c3ccc(Cl)cc3)ccc2C)CCCC(COC)C1 (mixture of isomers) [III-2]	5.50	5.58	
CCOC(=O)C1(OC(=O)Cc2c(C)cc(Br)cc2C)CCCC(COC)C1 (mixture of isomers) [III-3]	4.94	5.05	
CCOC(=O)C1(OC(=O)Cc2c(C)cc(Cl)cc2C)CCCC(COC)C1 (mixture of isomers) [III-4]	4.82	4.93	
CCOC(=O)C1(OC(=O)Cc2cc(C)c(C)cc2C)CCCC(COC)C1 (mixture of isomers) [III-5]	4.85	4.93	
CCOC(=O)C1(OC(=O)Cc2c(C)cc(C)cc2C)CCCC(COC)C1 (mixture of isomers) [III-6]	4.85	4.94	
CCOC(=O)C1(OC(=O)Cc2c(CC)cc(Br)cc2CC)CCCC(COC)C1 (mixture of isomers) [III-7]	5.52	5.62	
CCOC(=O)C1(OC(=O)Cc2cc(-c3ccc(Cl)cc3)ccc2C)CCC(COC)CC1 (mixture of isomers) [III-8]	5.36	5.49	
CCOC(=O)C1(OC(=O)Cc2c(C)cc(Br)cc2C)CCC(COC)CC1 (mixture of isomers) [III-9]	4.88	5.01	
CCOC(=O)C1(OC(=O)Cc2c(C)cc(Cl)cc2C)CCC(COC)CC1 (mixture of isomers) [III-10]	4.76	4.90	
CCOC(=O)C1(OC(=O)Cc2cc(C)c(C)cc2C)CCC(COC)CC1 (mixture of isomers) [III-11]	4.74	4.85	
CCOC(=O)C1(OC(=O)Cc2c(C)cc(C)cc2C)CCC(COC)CC1 (mixture of isomers) [III-12]	4.76	4.88	
CCOC(=O)C1(OC(=O)Cc2c(CC)cc(Br)cc2CC)CCC(COC)CC1 (mixture of isomers) [III-13]	5.52	5.65	
CCOC(=O)C1(OC(=O)Cc2c(CC)cc(C)cc2CC)CCC(COC)CC1 (mixture of isomers) [III-14]	5.39	5.51	
CCOC(=O)C1(OC(=O)Cc2cc(C)c(-c3ccc(Cl)cc3)cc2C)CCC(COC)CC1 (mixture of isomers) [III-15]	5.90	5.98	
CCOC(=O)C1(OC(=O)Cc2cc(-c3ccc(Cl)cc3)ccc2Cl)CCC(COC)CC1 (mixture of isomers) [III-16]	5.52	5.67	
CCOC(=O)C1(OC(=O)Cc2c(C)ccc(-c3ccc(Cl)cc3)c2C)CCC(COC)CC1 (mixture of isomers) [III-17]	5.86	5.96	
CCOC(=O)C1(OC(=O)Cc2cc(-c3ccc(Cl)cc3)ccc2C)CCCC(CCOC)C1 (mixture of isomers) [III-18]	5.68	5.80	
CCOC(=O)C1(OC(=O)Cc2c(C)cc(Br)cc2C)CCCC(CCOC)C1 (mixture of isomers) [III-19]	5.13	5.26	
CCOC(=O)C1(OC(=O)Cc2c(C)cc(Cl)cc2C)CCCC(CCOC)C1 (mixture of isomers) [III-20]	5.00	5.11	
CCOC(=O)C1(OC(=O)Cc2cc(C)c(C)cc2C)CCCC(CCOC)C1 (mixture of isomers) [III-21]	4.94	5.05	
CCOC(=O)C1(OC(=O)Cc2c(C)cc(C)cc2C)CCCC(CCOC)C1 (mixture of isomers) [III-22]	4.94	5.05	
CCOC(=O)C1(OC(=O)Cc2c(CC)cc(Br)cc2CC)CCCC(CCOC)C1 (mixture of isomers) [III-23]	5.69	5.81	
CCOC(=O)C1(OC(=O)Cc2c(CC)cc(C)cc2CC)CCCC(CCOC)C1 (mixture of isomers) [III-24]	5.56	5.66	

Structure (SMILES)	log P [1]	log P [2]	log P [3]
CCOC(=O)C1(OC(=O)Cc2cc(C)c(-c3ccc(Cl)cc3)cc2C)CCCC(CCOC)C1 (mixture of isomers) [III-25]	6.03	6.12	
CCOC(=O)C1(OC(=O)Cc2cc(-c3ccc(Cl)cc3)ccc2Cl)CCCC(CCOC)C1 (mixture of isomers) [III-26]	5.67	5.82	
CCOC(=O)C1(OC(=O)Cc2c(C)ccc(-c3ccc(Cl)cc3)c2C)CCCC(CCOC)C1 (mixture of isomers) [III-27]	6.02	6.09	
CCOC(=O)C1(OC(=O)Cc2cc(-c3ccc(Cl)cc3)ccc2C)CCC(CCOC)CC1 (mixture of isomers) [III-28]	5.69	5.81	
CCOC(=O)C1(OC(=O)Cc2c(C)cc(Br)cc2C)CCC(CCOC)CC1 (mixture of isomers) [III-29]	5.13	5.29	
CCOC(=O)C1(OC(=O)Cc2c(C)cc(Cl)cc2C)CCC(CCOC)CC1 (mixture of isomers) [III-30]	5.00	5.15	
CCOC(=O)C1(OC(=O)Cc2cc(C)c(C)cc2C)CCC(CCOC)CC1 (mixture of isomers) [III-31]	5.00	5.09	
CCOC(=O)C1(OC(=O)Cc2c(CC)cc(Br)cc2CC)CCC(CCOC)CC1 (mixture of isomers) [III-32]	5.75	5.90	
CCOC(=O)C1(OC(=O)Cc2c(CC)cc(C)cc2CC)CCC(CCOC)CC1 (mixture of isomers) [III-33]	5.64	5.75	
CCOC(=O)C1(OC(=O)Cc2cc(C)c(-c3ccc(Cl)cc3)cc2C)CCC(CCOC)CC1 (mixture of isomers) [III-34]	6.14	6.19	
CCOC(=O)C1(OC(=O)Cc2cc(-c3ccc(Cl)cc3)ccc2Cl)CCC(CCOC)CC1 (mixture of isomers) [III-35]	5.70	5.85	
COCC1CCCC2(C1)OC(=O)C(c1cc(C)c(C)cc1C)=C2O (stereo not shown) [1-2-a-5]			oil/2.78
COCC1CCCC2(C1)OC(=O)C(c1cc(-c3ccc(Cl)cc3)ccc1C)=C2O (stereo not shown) [Example I-2-a-2]			oil/3.58
CCc1cc(Br)cc(CC)c1C1=C(O)C2(CCCC(COC)C2)OC1=O (stereo not shown) [Example I-2-a-7]			oil/3.44
COCC1CCC2(CC1)OC(=O)C(c1cc(C)c(C)cc1C)=C2O (stereo not shown) [Example I-2-a-11]			oil/2.72
COCC1CCC2(CC1)OC(=O)C(c1c(C)cc(C)cc1C)=C2O (stereo not shown) [Example I-2-a-12]			oil/2.69
CCc1cc(Br)cc(CC)c1C1=C(O)C2(CCC(COC)CC2)OC1=O (stereo not shown) [Example I-2-a-13]			oil/3.38
CCc1cc(C)cc(CC)c1C1=C(O)C2(CCC(COC)CC2)OC1=O (stereo not shown) [Example I-2-a-14]			oil/3.19
COCCC1CCCC2(C1)OC(=O)C(c1cc(-c3ccc(Cl)cc3)ccc1C)=C2O (stereo not shown) [Example I-2-a-18]			oil/3.75
COCCC1CCCC2(C1)OC(=O)C(c1c(C)cc(Br)cc1C)=C2O (stereo not shown) [Example I-2-a-19]			oil/3.13
COCCC1CCCC2(C1)OC(=O)C(c1c(C)cc(Cl)cc1C)=C2O (stereo not shown) [Example I-2-a-20]			oil/3.03
COCCC1CCCC2(C1)OC(=O)C(c1cc(C)c(C)cc1C)=C2O (stereo not shown) [Example I-2-a-21]			oil/2.96
